Broadly, the EC50 is the midpoint of the concentration-response curve. What is called Emax is the size of the effect at its maximum, as opposed to the concentration needed.

Results on 16 compounds are retold here after patent US20240398772A1, “OXASPIRO DERIVATIVE, AND PREPARATION METHOD THEREFOR AND USE THEREOF” (SHUJING BIOPHARMA CO., LTD, priority 2021, published 2024).

In one test the target is T1, MOR (Homo sapiens, UniProt P35372).
T1 construct: expressed in transfected cells; host or cells: CHO-K1/OP3 (name from the earlier reading)
Put plainly: Agonist test on MOR, cAMP level (CHO-K1/OP3 cells, cAMP assay kit). The test is classed as cell-based. The settings on record: for EC50: forskolin-stimulated cAMP, read-out: EC50 agonizing MOR receptor to affect cAMP level; for Emax: maximal effect of DAMGO is 100%, read-out: Emax agonizing MOR receptor to affect cAMP level. As to the method:
5×stimulation buffer was diluted to 1× with ddH2O, an appropriate amount of 500 mM IBMX (generally, the IBMX stock solution was prepared to be 500 mM, namely 1000×) was added to enable the final concentration of the IBMX to be 0.5 mM, and the mixture was mixed well for later use (after the IBMX was added, that precipitation occurred was normal, and the precipitate was dissolved by well mixing). It must be prepared right before use.
1.3.1.2 IBMX was dissolved with DMSO to prepare a 500 mM stock solution, which was aliquoted into 20 μL/tube and cryopreserved at −80° C. to avoid repetition of freezing and thawing.
1.3.1.3 Forskolin was dissolved with DMSO to prepare a 10 mM stock solution, which was aliquoted into 20 μL/tube and cryopreserved at −20° C. for later use.
The CAMP standard substance in the kit returned to room temperature, and an equivalent amount of the experimental buffer was added according to the volume marked on the bottle label. The mixture was vortexed for mixing, aliquoted according to 50 μL/tube, and cryopreserved at −20° C. for later use.
5 mL ddH2O was added to a bottle of cAMP-d2 and a bottle of anti-cAMP-cryptate lyophilized powder, respectively, and the mixture was mixed well by gently turning the mixture upside down, aliquoted according to 125, 62.5, and 30 μL, and the like, and cryopreserved in the dark at −80° C.
1.3.2.1 Positive compound DAMGO and the test compound were serially diluted 4-fold to obtain 10 concentrations with Bravo using experimental buffer in a compound plate (Greiner-781280) at a starting concentration of 2 μM (from DMSO stock solution diluted with experimental buffer) and 20 μM (from DMSO stock solution diluted with experimental buffer), respectively.
1.3.2.2 Cells cryopreserved were thawed in a water bath at 37° C., the cell suspension was added to a centrifuge tube containing 10 mL of HBSS buffer, and the mixture was centrifuged at 750 rpm for 5 min. The supernatant was discarded, the pellet was resuspended in an appropriate amount of experimental buffer, and 20 μL of the pellet was counted using a cell counter. An appropriate amount of the cell suspension was diluted to 0.4×10^6 cells/mL, and 5 μL of the cell suspension was added to each well of a cell plate (the cell density was 2000 cells/well) and centrifuged at 1000 rpm for 1 min. 5 μL of the diluted compound was transferred to a cell plate (PerkinElmer-6008280) with Bravo, 5 μL of 2 μM DAMGO (the final concentration was 1 μM) was transferred to positive control wells, and an equal volume of experimental buffer was transferred to negative control wells, and the cell plate was centrifuged at 1000 rpm for 1 min. The cell plate was sealed and incubated at room temperature for 15 min. Forskolin was diluted to 0.2 mM with DMSO, 25.1 nL of which was transferred to a cell plate with Tecan-D300e, and the plate was centrifuged at 1000 rpm for 1 min, sealed, and incubated at room temperature for 45 min.
The final concentration of the initial point was 712 nM.
1.3.2.4 Preparation of detection reagent: an appropriate amount of a cAMP-d2 stock solution and an anti-cAMP-cryptate stock solution was diluted with a lysis buffer according to the ratio of 1:20, the two solutions were then mixed well by turning the solutions upside down according to the ratio of 1:1, and vortexing was prohibited. 10 μL of the prepared detection reagent was added to a cell plate and centrifuged at 1000 rpm for 1 min. The cell plate was incubated at room temperature for 1 h in the dark. After the cell plate was centrifuged at 1000 rpm for 1 min, the plate was read using Envision. Excitation light at 340 nm, emission light at 620 nm and 665 nm.
The formula for calculating the compound activation rate in the agonist test: […]
For orientation: Cyclic AMP is a second messenger, typically raised through Gs and lowered through Gi signalling.

Test [1] has as its system pain threshold of a mouse. Put plainly: Mouse thermal radiation tail-flick method. Type of test: in vivo, ICR mice. The settings on record: for Maximum analgesic percentage (% MPE): ICR mice, intragastric 10 mg/kg, Mean ± SEM, n = 9-10. As to the method: • Intragastric administration at a dose of 10 mg/kg;
ICR mice (normal grade, weighed 25-35 g, purchased from Shanghai Slac Laboratory Animal Co., Ltd.) were first mounted in a special plastic cylinder, their tails were exposed and allowed to droop naturally, and the measurements were made after the animals were calm. The radiation heat source could be an 8.75 mm projection lamp (32 W, adjustable). A light beam with the diameter of about 4 mm was emitted after being focused by a lens, which irradiated the skin at the junction of the middle third and the lower third of the tail (the light source and the skin at the tail must be closely attached); an electronic timer connected with the light source in parallel was used to synchronously record the irradiation duration, that is, when the irradiation started, a stopwatch was automatically started at the same time. When the tail of the animal obviously evaded, the timing was automatically stopped. The measured time interval was the tail flick latency. Mice with tail flick latency of 2-6 seconds were screened to participate in a grouping administration experiment. […] After a dose of a drug was administered to the mice, the pain threshold of the mice was measured at different times.
After a dose of a drug was administered to the mice, the pain threshold of the mice was measured at 0.5 h, 1 h, 2 h, and 3 h (effect view of the analgesic effect is shown in FIG. 1). The formula for calculating the maximum analgesic percentage (% MPE) after administration was as follows: % MPE=(post-administration pain threshold−pre-administration pain threshold)/(15−pre-administration pain threshold)×100%.

Each structure is given as a SMILES string.

T1 sequence (P35372 whole entry): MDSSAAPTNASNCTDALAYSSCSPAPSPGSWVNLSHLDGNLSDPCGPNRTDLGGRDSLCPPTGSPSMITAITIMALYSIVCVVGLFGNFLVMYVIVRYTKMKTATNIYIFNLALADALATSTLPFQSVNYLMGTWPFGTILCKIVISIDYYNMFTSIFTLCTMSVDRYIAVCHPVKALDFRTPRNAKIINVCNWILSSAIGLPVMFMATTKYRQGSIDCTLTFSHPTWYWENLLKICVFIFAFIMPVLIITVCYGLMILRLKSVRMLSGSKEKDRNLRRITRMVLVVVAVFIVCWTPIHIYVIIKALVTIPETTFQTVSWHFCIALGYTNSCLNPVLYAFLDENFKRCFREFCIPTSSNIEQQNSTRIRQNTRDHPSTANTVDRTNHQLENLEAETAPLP

Turning to `Fc1ccc([C@]2(CCN[C@H]3Cc4cccc(Br)c4C3)CCOC3(CCOCC3)C2)nc1` [Compound 10-1-1, (S)-4-bromo-N-(2-((R)-4-(5-fluoropyridin-2-yl)-1,9-dioxaspiro[5.5]undecan-4-yl)ethyl)-2,3-dihydro-1H-inden-2-amine], at MOR, the EC50 was 0.8 nM and the Emax turned out to be 104%.

Consider `Fc1ccc(C2(CCNC3Cc4cccc(Cl)c4C3)CCOC3(CCOCC3)C2)nc1` (stereo not shown) [Compound 17, 4-chloro-N-(2-(4-(5-fluoropyridin-2-yl)-1,9-dioxaspiro[5.5]undecan-4-yl)ethyl)-2,3-dihydro-1H-inden-2-amine], for which, at MOR, the EC50 was 2.14 nM and the Emax worked out at 93.8%.

For `Fc1ccc(C2(CCN[C@H]3CCc4c(F)cccc43)CCOC3(CCOCC3)C2)nc1` (stereo partly drawn) [Compound 2-1, (1S)-4-fluoro-N-(2-(4-(5-fluoropyridin-2-yl)-1,9-dioxaspiro[5.5]undecan-4-yl)ethyl)-2,3-dihydro-1H-inden-1-amine], at MOR, the EC50 amounted to 23.5 nM and the Emax was 101%.

As for `Cc1cccc2c1CC[C@@H]2NCCC1(c2ccc(F)cn2)CCOC2(CCOCC2)C1` (stereo partly drawn) [Compound 6-1, (1S)-N-(2-(4-(5-fluoropyridin-2-yl)-1,9-dioxaspiro[5.5]undecan-4-yl)ethyl)-4-methyl-2,3-dihydro-1H-inden-1-amine], on MOR, the EC50 stood at 1.56 nM and the Emax worked out at 118%.

Regarding `Fc1ccc(C2(CCN[C@H]3CCc4ccccc43)CCOC3(CCOCC3)C2)nc1` (stereo partly drawn) [Compound 3-1, (1S)-N-(2-(-4-(5-fluoropyridin-2-yl)-1,9-dioxaspiro[5.5]undecan-4-yl)ethyl)-2,3-dihydro-1H-inden-1-amine], on MOR, the EC50 stood at 0.79 nM and the Emax is 99.9%.

In the case of `Fc1ccc(C2(CCNCc3cccc(Cl)c3Cl)CCOC3(CCOCC3)C2)nc1` (stereo not shown) [Compound 13, N-(2,3-dichlorobenzyl)-2-(4-(5-fluoropyridin-2-yl)-1,9-dioxaspiro[5.5]undecan-4-yl)ethan-1-amine], on MOR, the EC50 was 17.3 nM and the Emax was found to be 78.9%.

For `Cc1c(Cl)cccc1CNCC[C@@]1(c2ccc(F)cn2)CCOC2(CCOCC2)C1` [Compound 12-1, (R)—N-(3-chloro-2-methylbenzyl)-2-(4-(5-fluoropyridin-2-yl)-1,9-dioxaspiro[5.5]undecan-4-yl)ethan-1-amine], the “Maximum analgesic percentage (% MPE)” value worked out at 99.48 ± 0.52 % in test [1] (0.5 h after administration), 86.20 ± 9.32 % in test [1] (1 h after administration), 89.98 ± 10.02 % in test [1] (2 h after administration) and 78.89 ± 10.05 % in test [1] (3 h after administration). Moreover, the “Maintenance of the analgesic effect compared with oxycodone” value in test [1] (mouse tail flick, 0.5-3 h after administration) was “maintained for a longer period of time”. Moreover, the “Drug effect compared with oxycodone” value in test [1] (mouse tail flick, same dose (10 mg/kg intragastric)) was “better drug effect than oxycodone”. Moreover, the EC50 at MOR amounted to 1.29 nM. For the same compound, the Emax on MOR came to 93.8%.

In the case of `Fc1ccc(C2(CCNC3CCc4ccc(Cl)cc43)CCOC3(CCOCC3)C2)nc1` (stereo not shown) [Compound 4, 6-chloro-N-(2-(4-(5-fluoropyridin-2-yl)-1,9-dioxaspiro[5.5]undecan-4-yl)ethyl)-2,3-dihydro-1H-inden-1-amine], on MOR, the half-maximal effective concentration (EC50) turned out to be 2.19 nM and the Emax amounted to 103%.

Turning to `Clc1cccc2c1CCC2NCCC1(c2ccccn2)CCOC2(CCOCC2)C1` (stereo not shown) [Compound 16, 4-chloro-N-(2-(4-(pyridin-2-yl)-1,9-dioxaspiro[5.5]undecan-4-yl)ethyl)-2,3-dihydro-1H-inden-1-amine], on MOR, the EC50 is 2.4 nM and the Emax was found to be 102%.

Regarding `Fc1ccc(C2(CCN[C@H]3CCc4ccc(F)cc43)CCOC3(CCOCC3)C2)nc1` (stereo partly drawn) [Compound 1-1, (1S)-6-fluoro-N-(2-(4-(5-fluoropyridin-2-yl)-1,9-dioxaspiro[5.5]undecan-4-yl)ethyl)-2,3-dihydro-1H-inden-1-amine], on MOR, the EC50 amounted to 0.44 nM and the Emax came out at 103%.

Take `Fc1ccc([C@]2(CCN[C@H]3Cc4cccc(Cl)c4C3)CCOC3(CCOCC3)C2)nc1` [Compound 17-1-1, (S)-4-chloro-N-(2-((R)-4-(5-fluoropyridin-2-yl)-1,9-dioxaspiro[5.5]undecan-4-yl)ethyl)-2,3-dihydro-1H-inden-2-amine]: on MOR, the EC50 turned out to be 0.64 nM and the Emax was 102%.

As to `Fc1ccc(C2(CCNCc3cccc(Cl)c3)CCOC3(CCOCC3)C2)nc1` (stereo not shown) [Compound 11, N-(3-chlorobenzyl)-2-(4-(5-fluoropyridin-2-yl)-1,9-dioxaspiro[5.5]undecan-4-yl)ethan-1-amine], on MOR, the EC50 was 7.75 nM and the Emax was 100%.

`Fc1ccc(C2(CCN[C@H]3CCc4c(Br)cccc43)CCOC3(CCOCC3)C2)nc1` (stereo partly drawn) [Compound 7-1, (1S)-4-bromo-N-(2-(4-(5-fluoropyridin-2-yl)-1,9-dioxaspiro[5.5]undecan-4-yl)ethyl)-2,3-dihydro-1H-inden-1-amine]: at MOR, the EC50 is 1.69 nM and the Emax stood at 116%.

Consider `COc1ccc2c3c1O[C@H]1C(=O)CC[C@@]4(O)[C@@H](C2)N(C)CC[C@]314` [Oxycodone, reference compound], for which the “Maximum analgesic percentage (% MPE)” value in test [1] (0.5 h after administration) is reported as 37.87 ± 12.44%; in test [1] (2 h after administration), 3.63 ± 8.14%; in test [1] (3 h after administration), −0.23 ± 6.48%. In addition, the Emax on MOR was found to be 95.2%.

For `Fc1ccc(C2(CCN[C@H]3CCc4c(Cl)cccc43)CCOC3(CCOCC3)C2)nc1` (stereo partly drawn) [Compound 5-1, (1S)-4-chloro-N-(2-(4-(5-fluoropyridin-2-yl)-1,9-dioxaspiro[5.5]undecan-4-yl)ethyl)-2,3-dihydro-1H-inden-1-amine], at MOR, the EC50 came to 1.33 nM and the Emax is 111%.

As for `Fc1ccc(C2(CCNCc3cccc(Cl)c3F)CCOC3(CCOCC3)C2)nc1` (stereo not shown) [Compound 14, N-(3-chloro-2-fluorobenzyl)-2-(4-(5-fluoropyridin-2-yl)-1,9-dioxaspiro[5.5]undecan-4-yl)ethan-1-amine], at MOR, the EC50 was found to be 24.2 nM and the Emax was 88.1%.
